Test results: EP1175901A1, “PEROXISOME ACTIVATOR-RESPONSIVE RECEPTOR AGONISTS” (Kaneka Corporation, priority 1999, dated 2000)
Marks after values point to notes of the source that are not given here.

Legend:
C57BL/6J mice [1] = assay: Visceral fat reduction: tissue weights in mice made obese on high-fat, high-sugar feed (Example 4); assay type: in vivo; conditions: obese female C57BL/6J mice, 3 weeks test feed, 7wt% test oil (CLA group: 0.5wt% CLA + 6.5wt% soybean oil)
Method: The visceral fat reduction effects or visceral fat accumulation suppression effects of the PPAR agonist and oil/fat composition of the present invention are evaluated by administering the candidate compound to a laboratory animal for a specific time period (e.g. 4 weeks), and then measuring the amount of visceral fat in the adipose tissue around the testes, the adipose tissue around the kidneys and the like.
10-week old female C57BL/6J mice (from Clea Japan) were made obese by keeping for 3 weeks on a high-fat, high-sugar feed (made by Oriental Yeast) having the composition shown in Table 4. The mice were then divided into groups of 8, and were kept for a further 3 weeks on a test feed consisting of a fat-free growth-period-use standard mixed feed (AIN-93G, made by Oriental Yeast) with 2wt% soybean oil as an essential fatty acid source and either 7wt% of a test oil or 7wt% of a control oil added. After 3 weeks, the mice were fed for the last time and then not fed for 16 hours, after which the whole blood was collected from the mice using a heparinized syringe under ether anesthesia, and then the mice were dissected, with the adipose tissue around the kidneys, the adipose tissue around the ovaries, the liver, the kidneys and the spleen being extracted, and the weights thereof being measured. Each organ weight thus obtained was divided by the body weight to obtain the ratio of the organ weight to the body weight. The adipose tissue around the kidneys and the adipose tissue around the ovaries was evaluated as visceral adipose tissue. The collected blood was centrifuged for 15 minutes at 3000 rpm while cooling to obtain the plasma, and then the total cholesterol concentration was measured using Cholesterol C Test Wako (made by Wako Pure Chemical Industries), the neutral lipid concentration using Triglyceride G Test Wako (made by Wako Pure Chemical Industries), and the free fatty acid concentration using NEFA C Test Wako (made by Wako Pure Chemical Industries). The groups set up were a test group for which pomegranate seed oil prepared as in Example 1 was added to the feed (pomegranate seed oil group), a control group for which soybean oil was added to the feed (soybean oil group), and a comparative group for which high-DHA-containing fish oil (DHA content 20wt%, made by Harima Chemicals), which is known to have obesity ameliorating effects, was added to the feed (fish oil group). Also set up was a group for which 6.5wt% of soybean oil and 0.5wt% of CLA (made by Kenko Tsusho, 70% purity) was added to the feed (CLA group). […] Moreover, also set up was a group that were fed a standard feed containing 9wt% of soybean oil throughout the test period right from the start (standard feed group, n=3). During the test period, the mice were allowed to drink water freely, but feeding was limited such that the intake was the same as for the soybean oil group.

C57BL/6J mice [2] = assay: Lipid metabolism amelioration: plasma lipid concentrations in obese mice (Example 4); assay type: in vivo; conditions: after 16 hours without feed, 3 weeks test feed, 7wt% test oil (CLA 0.5wt%), soybean oil group = 100
Text: 10-week old female C57BL/6J mice (from Clea Japan) were made obese by keeping for 3 weeks on a high-fat, high-sugar feed (made by Oriental Yeast) having the composition shown in Table 4. The mice were then divided into groups of 8, and were kept for a further 3 weeks on a test feed consisting of a fat-free growth-period-use standard mixed feed (AIN-93G, made by Oriental Yeast) with 2wt% soybean oil as an essential fatty acid source and either 7wt% of a test oil or 7wt% of a control oil added. After 3 weeks, the mice were fed for the last time and then not fed for 16 hours, after which the whole blood was collected from the mice using a heparinized syringe under ether anesthesia, and then the mice were dissected, with the adipose tissue around the kidneys, the adipose tissue around the ovaries, the liver, the kidneys and the spleen being extracted, and the weights thereof being measured. Each organ weight thus obtained was divided by the body weight to obtain the ratio of the organ weight to the body weight. The adipose tissue around the kidneys and the adipose tissue around the ovaries was evaluated as visceral adipose tissue. The collected blood was centrifuged for 15 minutes at 3000 rpm while cooling to obtain the plasma, and then the total cholesterol concentration was measured using Cholesterol C Test Wako (made by Wako Pure Chemical Industries), the neutral lipid concentration using Triglyceride G Test Wako (made by Wako Pure Chemical Industries), and the free fatty acid concentration using NEFA C Test Wako (made by Wako Pure Chemical Industries). The groups set up were a test group for which pomegranate seed oil prepared as in Example 1 was added to the feed (pomegranate seed oil group), a control group for which soybean oil was added to the feed (soybean oil group), and a comparative group for which high-DHA-containing fish oil (DHA content 20wt%, made by Harima Chemicals), which is known to have obesity ameliorating effects, was added to the feed (fish oil group). […]

mice = assay: Preliminary tests of CLA added to feed (liver enlargement, food intake); assay type: in vivo; conditions: 1wt% or more of CLA added to the feed
PPARγ = target: T1, PPARγ (Homo sapiens, UniProt P37231); assay: PPARγ agonist activity, GAL4-PPARγ chimera / 4×UASg-luc luciferase reporter assay in CV-1 cells; conditions: for Relative activity (n=3): untreated control = 100
T1 sequence (P37231 204-505): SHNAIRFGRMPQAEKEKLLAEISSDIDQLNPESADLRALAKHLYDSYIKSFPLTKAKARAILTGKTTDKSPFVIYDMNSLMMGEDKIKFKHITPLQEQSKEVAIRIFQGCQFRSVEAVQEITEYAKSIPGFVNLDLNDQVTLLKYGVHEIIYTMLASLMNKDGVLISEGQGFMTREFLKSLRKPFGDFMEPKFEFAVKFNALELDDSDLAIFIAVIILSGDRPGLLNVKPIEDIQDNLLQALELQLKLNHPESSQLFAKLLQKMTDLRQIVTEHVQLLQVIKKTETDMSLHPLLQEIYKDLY
Method: Moreover, untreated control groups were established by exchanging with a culture medium prepared by diluting only DMSO with DMEM containing 10% activated-charcoal-treated bovine fetal serum. […] One day after the culture medium exchange, the culture medium was removed, the cells were washed with phosphate buffered saline (PBS), a cell solution was prepared using PicaGene cell solution Luc (made by Toyo Ink), 20µl of the cell solution was reacted with 100µl of a PicaGene luminescent substrate (made by Toyo Ink), and the luciferase activity was measured using a luminometer (Berthold Lumat LB9501) with the measurement time set to 10 seconds.
Letting the ratio of the measurement group (the group for which pM-PPAR and 4×UASg-luc were transfected) to the control group (the group for which pM and 4×UASg-luc were transfected) in the case of the untreated control groups be (a), and the ratio of the measurement group to the control group in the case of the ligand-reagent-added groups be (b), the PPARγ agonist activity caused by the ligand reagent was evaluated using the ratio (b)/(a). To avoid errors due to differences in the transfection efficiency between experiments, TZD (1µm) was put in as positive control groups and the values between the experiments were corrected.

conjugated linoleic acid [CLA]
Ratio of tissue weight to body weight (mean, n=8): Fat around kidneys (C57BL/6J mice [1]; soybean oil group 0.304): 0.240 | Ratio of tissue weight to body weight (mean, n=8): Spleen (C57BL/6J mice [1]; soybean oil group 0.391): 0.450 | Ratio of tissue weight to body weight (mean, n=8): Fat around ovaries (C57BL/6J mice [1]; soybean oil group 0.839): 0.650 | Ratio of tissue weight to body weight (mean, n=8): Kidneys (C57BL/6J mice [1]; soybean oil group 1.128): 1.280 | Ratio of tissue weight to body weight (mean, n=8): Visceral fat (C57BL/6J mice [1]; soybean oil group 1.144): 0.890 | Ratio of tissue weight to body weight (mean, n=8): Liver (C57BL/6J mice [1]; soybean oil group 4.454): 4.920 | Relative blood lipid concentration (mean, n=8): Free fatty acids (C57BL/6J mice [2]): 71* % of soybean oil group | Relative blood lipid concentration (mean, n=8): Neutral lipids (C57BL/6J mice [2]): 100 mg/dL | Relative blood lipid concentration (mean, n=8): Total cholesterol (C57BL/6J mice [2]): 89 mg/dL | food intake (mice): drop in the mice's food intake | liver enlargement (mice): 1.4 times relative to a control | Relative activity (mean, n=3) (PPARγ; 20µM final fatty acid concentration, untreated control group = 100): 125 | Relative activity (n=3) (PPARγ; concentration 3 (µm [sic]), 3 µM): 129 | Relative activity (n=3) (PPARγ; concentration 9 (µm [sic]), 9 µM): 109 | Relative activity (n=3) (PPARγ; concentration 30 (µm [sic]), 30 µM): 110 | Relative activity (n=3) (PPARγ; concentration 90 (µm [sic]), 90 µM): 159 | Relative activity (n=3) (PPARγ; concentration 300 (µm [sic]), 300 µM): 323
